One data set has as its target T1, Human thrombin (Homo sapiens, UniProt P00734).
T1 construct: conversion of the proenzyme prothrombin to the active enzyme thrombin; purchased Sigma Chem. Co T 6769
Nature of the data set: Test A: Determination of Thrombin Clotting Time (TT). Particulars: concentration of inhibitor that doubles the thrombin clotting time for human plasma. The data set is classed as biochemical. The protocol:
Determination of Thrombin Clotting Time (TT)
The inhibitor solution (25 μL) was incubated with plasma (25 μL) for three minutes. Human thrombin (T 6769; Sigma Chem. Co) in buffer solution, pH 7.4 (25 μL) was then added and the clotting time measured in an automatic device (KC 10; Amelung).
The clotting time in seconds was plotted against the inhibitor concentration, and the IC50TT was determined by interpolation.
IC50TT is the concentration of inhibitor in the test that doubles the thrombin clotting time for human plasma.

The conditions of data set [1]: rat, in vivo. The text has this:
Determination of Thrombin Time Ex Vivo
The inhibition of thrombin after oral or parenteral administration of the compounds of formula I, dissolved in ethanol:Solutol™:water (5:5:90), were examined in conscious rats which, one or two days prior to the experiment, were equipped with a catheter for blood sampling from the carotid artery. On the experimental day blood samples were withdrawn at fixed times after the administration of the compound into plastic tubes containing 1 part sodium citrate solution (0.13 mol per L) and 9 parts of blood. The tubes were centrifuged to obtain platelet poor plasma. The plasma was used for determination of thrombin time as described below.
The citrated rat plasma, 100 μL, was diluted with a saline solution, 0.9%, 100 μL, and plasma coagulation was started by the addition of human thrombin (T 6769, Sigma Chem Co, USA) in a buffer solution, pH 7.4, 100 μL. The clotting time was measured in an automatic device (KC 10, Amelumg, Germany). […]
Based on the estimated plasma concentrations of the active thrombin inhibitor (which assumes that thrombin time prolongation is caused by the aforementioned compound) in the rat, the area under the curve after oral and/or parenteral administration of the corresponding prodrug compound of formula I was calculated (AUCpd) using the trapezoidal rule and extrapolation of data to infinity. […]

Structures are written as SMILES.

We go through four compounds from patent US7241757B2, “Amidino derivatives and their use as thrombin inhibitors” (AstraZeneca AB, priority 2000, dated 2007).

For the compound `N=C(N)c1ccc(CNC(=O)C2CCN2C(=O)C2(O)CCOc3c(OC(F)(F)F)cc(Cl)cc32)cc1` (stereo not shown) [Example 6, 4-Hydroxy-6-chloro-8-trifluoromethoxychroman-4-yl-C(O)-Aze-Pab], the IC50 – broadly, the concentration needed to halve the response being measured – on Human thrombin is below 100 nM.
With `N=C(N)c1ccc(CNC(=O)C2CCN2C(=O)C2(O)CCOc3c(OC(F)F)cc(Cl)cc32)cc1` (single isomer, unassigned) [Example 8, (S)- or (R)-4-Hydroxy-6-chloro-8-difluoromethoxychroman-4-yl-C(O)-Aze-Pab×HOAc], on Human thrombin, the IC50 was below 100 nM.
As to `CON=C(N)c1ccc(CNC(=O)[C@@H]2CCN2C(=O)C2(O)CCOc3c(OC(F)F)cc(Cl)cc32)cc1` (single isomer, unassigned) [Example 9, (S)- or (R)-4-Hydroxy-6-chloro-8-difluoromethoxychroman-4-yl-C(O)-Aze-Pab(OMe)], the “oral and/or parenteral bioavailability as the corresponding active inhibitor (free amidine)” value in data set [1] is recorded as “exhibit oral and/or parenteral bioavailability”.
On to `CON=C(N)c1ccc(CNC(=O)[C@@H]2CCN2C(=O)C2(O)CCOc3c(OC(F)(F)F)cc(Cl)cc32)cc1` (stereo partly shown) [Example 7, 4-Hydroxy-6-chloro-8-trifluoromethoxychroman-4-yl-C(O)-Aze-Pab(OMe)], for which, in data set [1], the “oral and/or parenteral bioavailability as the corresponding active inhibitor (free amidine)” value was “exhibit oral and/or parenteral bioavailability”.
